From paper PMC6478789, “A chemical toolbox for the study of bromodomains and epigenetic signaling” (Nature Communications, 2019) come the findings set out here.

Test in all cases: Methyl transferase scintillation proximity assay
Format in all cases: biochemical
Holding throughout (conditions): average of two measurements; for inhibition at 10 µM: read-out: MTases Inhibition (%)
On the technique in general: Scintillation proximity formats need no separation of bound from free tracer.

One assay deals with T1, ASH1L (Homo sapiens, UniProt Q9NR48).
T1 construct: purchased DiscoverX BROMOscan (bromodomains); SGC in-house methyltransferase panel
Summed up: (§1)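 Read-out is scintillation counts (CPM) from biotinylated substrate carrying a ^3H-methyl group, normalised to no-compound (100%) and no-enzyme (0%) wells. Reactions used ^3H-SAM and substrate close to each enzyme's apparent Km.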

Another assay has as its target T2, DNMT3B/3L (Homo sapiens, UniProt Q9UBC3).
T2 construct: purchased DiscoverX BROMOscan (bromodomains); SGC in-house methyltransferase panel
Summed up: as §1

A further assay has as its target T3, DOT1L (Homo sapiens, UniProt Q8TEK3).
T3 construct: purchased DiscoverX BROMOscan (bromodomains); SGC in-house methyltransferase panel
The procedure, abridged: as §1

The target in another assay is T4, PRC2-EZH2 (Homo sapiens, UniProt Q15910).
T4 construct: purchased DiscoverX BROMOscan (bromodomains); SGC in-house methyltransferase panel
Summed up: as §1

The target in a further assay is T5, PRDM9 (Homo sapiens, UniProt Q9NQV7).
T5 construct: purchased DiscoverX BROMOscan (bromodomains); SGC in-house methyltransferase panel
The procedure, abridged:
as §1

In the next assay the target is T6, PRMT6 (Homo sapiens, UniProt Q96LA8).
T6 construct: purchased DiscoverX BROMOscan (bromodomains); SGC in-house methyltransferase panel
Summed up: as §1

In a further assay the target is T7, PRMT7 (Homo sapiens, UniProt Q9NVM4).
T7 construct: purchased DiscoverX BROMOscan (bromodomains); SGC in-house methyltransferase panel
T7 sequence (Q9NVM4 1-692): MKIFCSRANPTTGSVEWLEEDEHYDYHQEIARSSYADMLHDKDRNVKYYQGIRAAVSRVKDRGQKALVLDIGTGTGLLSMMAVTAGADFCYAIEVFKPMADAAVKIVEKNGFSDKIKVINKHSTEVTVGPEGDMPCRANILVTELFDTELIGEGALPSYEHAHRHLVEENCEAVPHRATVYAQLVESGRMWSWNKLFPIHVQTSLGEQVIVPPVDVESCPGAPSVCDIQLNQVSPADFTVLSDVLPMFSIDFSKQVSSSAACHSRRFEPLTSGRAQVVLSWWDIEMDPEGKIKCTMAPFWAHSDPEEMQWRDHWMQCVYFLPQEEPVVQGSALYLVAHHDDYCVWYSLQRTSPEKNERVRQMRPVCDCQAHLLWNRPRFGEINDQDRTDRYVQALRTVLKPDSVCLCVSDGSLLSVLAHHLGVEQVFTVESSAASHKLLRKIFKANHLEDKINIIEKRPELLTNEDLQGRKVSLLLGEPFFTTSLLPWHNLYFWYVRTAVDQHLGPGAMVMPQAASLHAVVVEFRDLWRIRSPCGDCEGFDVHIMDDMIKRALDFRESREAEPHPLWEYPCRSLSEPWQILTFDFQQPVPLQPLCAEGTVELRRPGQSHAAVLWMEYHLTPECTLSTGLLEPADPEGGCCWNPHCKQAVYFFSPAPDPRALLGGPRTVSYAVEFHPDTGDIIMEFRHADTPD
Summed up: as §1

For the next assay, the target named is T8, PRMT9 (Homo sapiens, UniProt Q6P2P2).
T8 construct: purchased DiscoverX BROMOscan (bromodomains); SGC in-house methyltransferase panel
T8 sequence (Q6P2P2 1-845): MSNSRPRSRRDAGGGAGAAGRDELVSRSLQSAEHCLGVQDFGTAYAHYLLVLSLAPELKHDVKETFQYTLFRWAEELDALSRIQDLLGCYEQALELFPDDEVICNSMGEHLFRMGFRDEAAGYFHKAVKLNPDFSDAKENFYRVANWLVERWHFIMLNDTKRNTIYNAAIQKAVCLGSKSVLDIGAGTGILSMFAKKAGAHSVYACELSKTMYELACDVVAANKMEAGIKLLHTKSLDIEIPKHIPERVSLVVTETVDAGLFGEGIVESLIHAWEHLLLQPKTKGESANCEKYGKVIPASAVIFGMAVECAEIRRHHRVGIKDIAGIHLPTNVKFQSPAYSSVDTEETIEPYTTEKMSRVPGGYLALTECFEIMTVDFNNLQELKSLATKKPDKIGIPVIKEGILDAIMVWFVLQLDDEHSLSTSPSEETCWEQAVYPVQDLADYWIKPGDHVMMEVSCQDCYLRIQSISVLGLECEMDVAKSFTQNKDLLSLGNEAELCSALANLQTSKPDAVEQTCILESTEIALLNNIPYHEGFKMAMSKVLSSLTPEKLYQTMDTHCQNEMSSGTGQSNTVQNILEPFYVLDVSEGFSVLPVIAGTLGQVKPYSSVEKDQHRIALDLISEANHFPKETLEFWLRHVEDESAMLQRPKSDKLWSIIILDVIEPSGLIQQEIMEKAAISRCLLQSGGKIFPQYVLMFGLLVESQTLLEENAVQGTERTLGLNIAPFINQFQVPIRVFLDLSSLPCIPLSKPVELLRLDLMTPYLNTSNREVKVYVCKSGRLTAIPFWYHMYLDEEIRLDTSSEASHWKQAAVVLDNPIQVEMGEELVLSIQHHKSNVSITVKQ
The procedure, abridged: as §1

For another assay, the target named is T9, SUV39H1 (Homo sapiens, UniProt O43463).
T9 construct: purchased DiscoverX BROMOscan (bromodomains); SGC in-house methyltransferase panel
T9 sequence (O43463 1-412): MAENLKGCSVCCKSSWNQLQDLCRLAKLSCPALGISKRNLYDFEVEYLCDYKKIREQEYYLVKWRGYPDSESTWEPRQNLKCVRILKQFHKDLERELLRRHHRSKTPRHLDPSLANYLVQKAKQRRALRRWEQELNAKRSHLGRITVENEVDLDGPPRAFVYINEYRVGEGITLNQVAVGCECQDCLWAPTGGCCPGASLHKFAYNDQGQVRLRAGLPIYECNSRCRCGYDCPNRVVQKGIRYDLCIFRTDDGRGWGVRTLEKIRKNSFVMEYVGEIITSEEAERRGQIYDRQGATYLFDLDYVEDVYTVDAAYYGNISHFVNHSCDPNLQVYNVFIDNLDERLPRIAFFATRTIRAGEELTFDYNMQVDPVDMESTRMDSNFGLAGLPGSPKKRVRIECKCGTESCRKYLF
The procedure, abridged:
as §1

The target in a further assay is T10, SUV420H1 (Homo sapiens, UniProt Q4FZB7).
T10 construct: purchased DiscoverX BROMOscan (bromodomains); SGC in-house methyltransferase panel
The procedure, abridged: as §1

T6 sequence (Q96LA8 whole entry): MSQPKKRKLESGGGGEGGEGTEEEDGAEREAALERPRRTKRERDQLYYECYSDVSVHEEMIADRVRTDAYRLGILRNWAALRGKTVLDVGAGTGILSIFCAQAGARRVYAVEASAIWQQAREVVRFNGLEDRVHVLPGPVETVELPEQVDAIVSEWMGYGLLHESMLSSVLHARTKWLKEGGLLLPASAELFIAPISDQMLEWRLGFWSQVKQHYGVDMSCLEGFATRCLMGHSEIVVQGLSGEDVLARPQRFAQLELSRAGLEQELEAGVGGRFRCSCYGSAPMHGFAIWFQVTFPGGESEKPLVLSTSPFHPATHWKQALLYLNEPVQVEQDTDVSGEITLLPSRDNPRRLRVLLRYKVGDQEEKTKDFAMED
T10 sequence (Q4FZB7 whole entry): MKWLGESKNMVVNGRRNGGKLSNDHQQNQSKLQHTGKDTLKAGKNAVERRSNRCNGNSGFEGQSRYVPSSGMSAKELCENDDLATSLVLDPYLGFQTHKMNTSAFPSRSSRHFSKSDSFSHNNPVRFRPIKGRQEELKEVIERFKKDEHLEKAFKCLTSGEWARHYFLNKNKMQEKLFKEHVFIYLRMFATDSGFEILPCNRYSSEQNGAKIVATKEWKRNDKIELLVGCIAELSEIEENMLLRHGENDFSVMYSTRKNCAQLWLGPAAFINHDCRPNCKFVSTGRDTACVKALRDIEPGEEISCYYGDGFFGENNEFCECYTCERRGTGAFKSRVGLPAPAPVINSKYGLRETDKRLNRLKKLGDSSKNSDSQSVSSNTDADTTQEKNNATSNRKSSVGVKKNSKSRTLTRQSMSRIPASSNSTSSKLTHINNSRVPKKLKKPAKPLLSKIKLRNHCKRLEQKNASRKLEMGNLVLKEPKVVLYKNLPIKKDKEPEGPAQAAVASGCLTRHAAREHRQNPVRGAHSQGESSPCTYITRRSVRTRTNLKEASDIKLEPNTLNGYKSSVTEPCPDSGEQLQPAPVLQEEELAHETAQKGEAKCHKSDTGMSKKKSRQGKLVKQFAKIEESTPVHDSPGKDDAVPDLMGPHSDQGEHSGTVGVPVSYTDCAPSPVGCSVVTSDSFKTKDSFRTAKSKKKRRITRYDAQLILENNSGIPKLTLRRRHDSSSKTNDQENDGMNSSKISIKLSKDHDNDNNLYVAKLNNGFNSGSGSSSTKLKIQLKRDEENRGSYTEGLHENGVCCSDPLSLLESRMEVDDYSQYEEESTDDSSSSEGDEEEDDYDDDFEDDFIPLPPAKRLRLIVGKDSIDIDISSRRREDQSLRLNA
T4 sequence (Q15910 whole entry): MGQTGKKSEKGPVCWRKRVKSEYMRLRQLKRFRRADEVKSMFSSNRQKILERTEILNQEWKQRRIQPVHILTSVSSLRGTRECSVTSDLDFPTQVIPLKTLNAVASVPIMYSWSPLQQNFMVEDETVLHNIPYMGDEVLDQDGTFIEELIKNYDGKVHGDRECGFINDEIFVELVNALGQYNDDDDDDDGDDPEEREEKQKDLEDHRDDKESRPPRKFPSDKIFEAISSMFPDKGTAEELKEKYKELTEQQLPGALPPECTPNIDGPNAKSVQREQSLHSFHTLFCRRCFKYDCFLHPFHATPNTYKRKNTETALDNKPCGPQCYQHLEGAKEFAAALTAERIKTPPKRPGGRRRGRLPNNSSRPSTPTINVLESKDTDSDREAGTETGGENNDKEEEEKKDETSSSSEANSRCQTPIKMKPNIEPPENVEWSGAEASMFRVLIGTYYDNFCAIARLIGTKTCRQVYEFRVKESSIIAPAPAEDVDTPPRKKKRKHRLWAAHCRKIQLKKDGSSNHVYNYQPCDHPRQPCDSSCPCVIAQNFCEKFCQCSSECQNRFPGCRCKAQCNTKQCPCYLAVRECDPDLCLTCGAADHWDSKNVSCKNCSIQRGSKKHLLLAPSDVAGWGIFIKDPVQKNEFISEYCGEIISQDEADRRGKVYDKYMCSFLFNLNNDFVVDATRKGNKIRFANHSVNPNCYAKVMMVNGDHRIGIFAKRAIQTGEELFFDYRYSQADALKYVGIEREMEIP
T4 sequence (O75530 whole entry partner): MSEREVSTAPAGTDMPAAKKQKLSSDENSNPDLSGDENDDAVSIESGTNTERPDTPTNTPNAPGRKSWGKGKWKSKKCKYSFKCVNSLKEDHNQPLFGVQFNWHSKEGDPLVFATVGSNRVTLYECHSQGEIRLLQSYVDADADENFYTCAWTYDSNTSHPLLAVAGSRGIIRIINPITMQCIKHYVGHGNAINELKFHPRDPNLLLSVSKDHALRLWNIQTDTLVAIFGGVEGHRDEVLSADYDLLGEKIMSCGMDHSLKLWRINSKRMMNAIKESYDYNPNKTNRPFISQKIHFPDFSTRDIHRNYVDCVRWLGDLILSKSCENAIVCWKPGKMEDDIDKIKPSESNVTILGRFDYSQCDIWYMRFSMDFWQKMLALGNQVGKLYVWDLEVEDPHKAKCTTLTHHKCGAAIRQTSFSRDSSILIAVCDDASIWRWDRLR
T4 sequence (Q15022 whole entry partner): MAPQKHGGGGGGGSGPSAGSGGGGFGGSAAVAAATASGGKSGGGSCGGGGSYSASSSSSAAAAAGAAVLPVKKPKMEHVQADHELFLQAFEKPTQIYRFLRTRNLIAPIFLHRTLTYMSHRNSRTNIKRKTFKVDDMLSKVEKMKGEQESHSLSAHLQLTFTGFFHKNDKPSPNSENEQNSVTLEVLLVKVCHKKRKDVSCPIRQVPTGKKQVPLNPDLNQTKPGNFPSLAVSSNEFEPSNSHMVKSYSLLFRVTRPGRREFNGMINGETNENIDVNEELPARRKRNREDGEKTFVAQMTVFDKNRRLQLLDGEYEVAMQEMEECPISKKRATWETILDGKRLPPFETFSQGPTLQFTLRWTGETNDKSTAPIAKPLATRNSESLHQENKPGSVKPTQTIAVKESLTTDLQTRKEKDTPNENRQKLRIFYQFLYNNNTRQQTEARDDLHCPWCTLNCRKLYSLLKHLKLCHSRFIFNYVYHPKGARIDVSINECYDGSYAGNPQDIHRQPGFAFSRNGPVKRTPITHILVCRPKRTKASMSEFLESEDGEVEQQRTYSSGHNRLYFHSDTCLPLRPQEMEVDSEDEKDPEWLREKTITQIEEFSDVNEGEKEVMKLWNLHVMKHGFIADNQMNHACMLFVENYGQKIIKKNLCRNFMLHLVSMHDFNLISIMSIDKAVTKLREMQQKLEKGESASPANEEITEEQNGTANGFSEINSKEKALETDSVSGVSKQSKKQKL
T3 sequence (Q8TEK3 whole entry): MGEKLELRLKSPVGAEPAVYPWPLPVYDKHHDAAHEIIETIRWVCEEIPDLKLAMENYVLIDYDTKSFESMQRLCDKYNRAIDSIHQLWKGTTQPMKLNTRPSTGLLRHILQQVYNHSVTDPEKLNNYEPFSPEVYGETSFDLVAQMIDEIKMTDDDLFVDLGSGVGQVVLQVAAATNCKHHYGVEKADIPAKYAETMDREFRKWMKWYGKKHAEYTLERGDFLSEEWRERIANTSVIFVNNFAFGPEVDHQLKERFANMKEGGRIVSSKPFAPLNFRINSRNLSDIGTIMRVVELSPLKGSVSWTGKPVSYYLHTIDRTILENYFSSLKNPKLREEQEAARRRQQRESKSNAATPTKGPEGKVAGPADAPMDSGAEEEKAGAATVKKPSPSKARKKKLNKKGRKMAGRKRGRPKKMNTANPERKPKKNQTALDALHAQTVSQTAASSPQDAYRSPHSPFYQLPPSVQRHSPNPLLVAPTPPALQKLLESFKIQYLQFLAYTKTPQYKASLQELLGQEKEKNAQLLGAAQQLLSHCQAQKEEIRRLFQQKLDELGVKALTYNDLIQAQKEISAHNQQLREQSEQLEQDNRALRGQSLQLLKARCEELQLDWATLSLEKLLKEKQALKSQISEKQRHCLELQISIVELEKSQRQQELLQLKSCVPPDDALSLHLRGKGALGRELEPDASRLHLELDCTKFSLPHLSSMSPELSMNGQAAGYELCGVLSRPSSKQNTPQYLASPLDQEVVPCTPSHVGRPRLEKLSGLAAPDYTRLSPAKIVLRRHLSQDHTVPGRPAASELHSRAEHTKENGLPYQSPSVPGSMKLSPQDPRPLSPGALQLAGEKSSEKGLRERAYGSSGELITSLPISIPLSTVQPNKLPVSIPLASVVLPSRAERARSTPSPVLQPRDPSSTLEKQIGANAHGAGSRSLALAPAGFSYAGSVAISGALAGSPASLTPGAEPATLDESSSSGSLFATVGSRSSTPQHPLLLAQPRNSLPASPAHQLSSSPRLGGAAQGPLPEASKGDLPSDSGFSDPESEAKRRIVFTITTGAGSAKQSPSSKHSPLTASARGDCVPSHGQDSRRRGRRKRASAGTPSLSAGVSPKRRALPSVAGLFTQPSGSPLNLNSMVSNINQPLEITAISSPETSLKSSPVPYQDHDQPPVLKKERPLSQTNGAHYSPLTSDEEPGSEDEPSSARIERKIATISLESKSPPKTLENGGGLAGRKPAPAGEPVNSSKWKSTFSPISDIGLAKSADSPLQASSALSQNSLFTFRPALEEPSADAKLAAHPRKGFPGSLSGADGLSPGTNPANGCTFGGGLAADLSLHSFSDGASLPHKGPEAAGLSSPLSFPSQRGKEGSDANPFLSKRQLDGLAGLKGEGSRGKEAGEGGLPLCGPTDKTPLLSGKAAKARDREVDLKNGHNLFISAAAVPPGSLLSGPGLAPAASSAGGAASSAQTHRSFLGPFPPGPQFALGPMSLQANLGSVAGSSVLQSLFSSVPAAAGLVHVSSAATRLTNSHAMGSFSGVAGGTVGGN

With `Cc1c(NC(=O)c2cc(C(N)=O)nc3cc(F)ccc23)c(C(F)(F)F)nn1Cc1ccc(C(C)(C)C)cc1` [BAY-588], the inhibition (commonly the drop in the measured response relative to a control, in per cent) at 10 µM at ASH1L is -6%; on DNMT3B/3L, -6%; on DOT1L it was 3%; on PRC2-EZH2, 3%; on PRDM9, 3%; on PRMT6, 4%. Also, the inhibition at 10 µM on PRMT7 was 13%; at PRMT9 it was 3%; on SUV39H1, 12%; on SUV420H1, -5%.

As for `COc1cc(Cl)c(C(=O)N[C@@H](CN[C@H]2CC[C@@H](N)CC2)Cc2ccc(C#N)cc2)cc1-c1ccc(CN[C@H](C)c2ccc(C)cc2)o1` [BAY-850], the inhibition at 10 µM at ASH1L was 3%; at DNMT3B/3L, 28%; at DOT1L it was 3%; at PRC2-EZH2, 3%; on PRDM9 it was 10%; at PRMT6, 13%. In addition, the inhibition at 10 µM was found to be 3% at PRMT7, 15% at PRMT9, 5% on SUV39H1 and 5% on SUV420H1.

In the case of `Cc1c(NC(=O)c2cc(C(N)=O)nc3cc(F)ccc23)c(C(F)(F)F)nn1Cc1ccc(C#N)cc1` [BAY-876], the inhibition at 10 µM is 4% on ASH1L; 1% at DNMT3B/3L; -6% at DOT1L; 5% on PRC2-EZH2; 0% on PRDM9; -3% on PRMT6. Besides, the inhibition at 10 µM on PRMT7 is 12%; on PRMT9 it was 12%; on SUV39H1, 16%; on SUV420H1 it was -1%.

For `CN1C[C@H](Nc2cnn(C)c(=O)c2Br)C[C@H](c2ccccc2)C1` [GSK4027], the inhibition at 10 µM at ASH1L was 13%; on DNMT3B/3L, 1%; at DOT1L it was -2%; on PRC2-EZH2 it was -5%; on PRDM9 it was 3%; at PRMT6 it was 6%. In addition, the inhibition at 10 µM at PRMT7 is 15%; on PRMT9, 8%; at SUV39H1, -3%; on SUV420H1, 8%.

For `COc1ccccc1C(=O)Nc1cc2c(cc1N1CCNC[C@H]1C)n(C)c(=O)n2C` [GSK6853], the “MTases Inhibition (%)” value is 4% at ASH1L (10µM); 8% at DNMT3B/3L (10µM); 10% at DOT1L (10µM); 0% at PRC2-EZH2 (10µM); -2% at PRDM9 (10µM); 5% at PRMT6 (10µM). Further, the “MTases Inhibition (%)” value at PRMT7 (10µM) was 11%; at PRMT9 (10µM) it was 12%; at SUV39H1 (10µM), -3%; on SUV420H1 (10µM), 5%.

Take `CO[C@H]1CNC[C@@H](OCC2CCC(F)(F)CC2)[C@@H]1Nc1ncc(-c2cncc(C)c2)c2cc(C)c(=O)[nH]c12` [GSK8814]: the inhibition at 10 µM at ASH1L came to 2%; on DNMT3B/3L it was 18%; on DOT1L, 5%; at PRC2-EZH2, 2%; at PRDM9, 0%; on PRMT6, 0%. Also, the inhibition at 10 µM on PRMT7 is 11%; at PRMT9, 3%; on SUV39H1 it was -2%; on SUV420H1 it was -3%.

Take `Cc1nnc2c3ccccc3c(N[C@@H](C)[C@H](c3ccccc3)N(C)C)nn12` [L-Moses]: the inhibition at 10 µM is -3% on ASH1L; -1% on DNMT3B/3L; 1% on DOT1L; -4% on PRC2-EZH2; 4% on PRDM9; 5% on PRMT6. The inhibition at 10 µM is 8% at PRMT7, 13% on PRMT9, -2% at SUV39H1 and 4% at SUV420H1.

Consider `CN(C)CCCOc1ccc(-c2cc(NCCCn3cccn3)nc(S(C)(=O)=O)n2)cc1` [TP-238], for which the inhibition at 10 µM at ASH1L is -4%; on DNMT3B/3L, 0%; on DOT1L, 6%; at PRC2-EZH2, 3%; on PRDM9 it was -1%; on PRMT6, 6%. The inhibition at 10 µM on PRMT7 was 9%; on PRMT9, 7%; on SUV39H1, -1%; on SUV420H1, 3%.
